Source: ChEMBL document CHEMBL1201862, “PubChem BioAssay data set” (2004)
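A five-concentration, 48-hour dose response in 96-well plates underlies each endpoint, interpolated linearly between surrounding concentrations. Abbreviation: GI50, concentration required for 50% inhibition of growth.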 Calls of active or inactive are those of the source. Cut-off read from the data, not from the text of the source: active = GI50 up to about 1.1 µM and inactive = higher.

Experiments:
Assay in all cases: DTP human tumour cell line panel, 48 h
[1] = system: SF-268
[2] = system: SK-OV-3
[3] = system: ACHN
[4] = system: SW-620
[5] = system: SK-MEL-2
[6] = system: M14
[7] = system: KM-20L2
[8] = system: RXF 393
[9] = system: U-251
[10] = system: DMS-114
[11] = system: EKVX
[12] = system: SK-MEL-28
[13] = system: OVCAR-4
[14] = system: A549
[15] = system: 786-0
[16] = system: CCRF-CEM

Compound | GI50 [1] | GI50 [2] | GI50 [3] | GI50 [4] | GI50 [5] | GI50 [6] | GI50 [7] | GI50 [8] | GI50 [9] | GI50 [10] | GI50 [11] | GI50 [12] | GI50 [13] | GI50 [14] | GI50 [15] | GI50 [16]
O=C1C2C3CC(C4C5C=CC(C5)C34)C2C2C3CC(C12)C1C2C=CC(C2)C31 (stereo not given) | 90.8 µM (inactive) | > 100 µM (inactive) | > 100 µM (inactive) | 20.8 µM (inactive) | > 100 µM (inactive) | > 100 µM (inactive) | > 100 µM (inactive) | > 100 µM (inactive) | > 100 µM (inactive) | > 100 µM (inactive) | > 100 µM (inactive) | > 100 µM (inactive) | > 100 µM (inactive) | > 100 µM (inactive) | > 100 µM (inactive) | 61.4 µM (inactive)
NC(=O)c1cc([N+](=O)[O-])cc([N+](=O)[O-])c1 [NITROMIDE] | > 100 µM (inactive) | > 100 µM (inactive) | > 100 µM (inactive) | > 100 µM (inactive) | > 100 µM (inactive) | > 100 µM (inactive) | > 100 µM (inactive) | > 100 µM (inactive) | > 100 µM (inactive) | 38.5 µM (inactive) | > 100 µM (inactive) | > 100 µM (inactive) | > 100 µM (inactive) | > 100 µM (inactive) | > 100 µM (inactive) | > 100 µM (inactive)
O=C1C(Cl)C(c2ccccc2Cl)N1n1cnc2ccccc2c1=O (stereo not given) | 54.5 µM (inactive) | 24.2 µM (inactive) | 76.2 µM (inactive) | 31.9 µM (inactive) | 24.7 µM (inactive) | 94 µM (inactive) | > 100 µM (inactive) | 17.5 µM (inactive) | 48.4 µM (inactive) | 16.4 µM (inactive) | 18.5 µM (inactive) | > 100 µM (inactive) | > 100 µM (inactive) | > 100 µM (inactive) | 75.7 µM (inactive) | 45.8 µM (inactive)
CC(CN1CCN(CC(C)Nc2ccnc3cc(Cl)ccc23)CC1)Nc1ccnc2cc(Cl)ccc12 (stereo not given) | 2.81 µM (inactive) | 34 µM (inactive) | 28.8 µM (inactive) |  |  | 14.5 µM (inactive) | 13.4 µM (inactive) | 13.2 µM (inactive) | 18.5 µM (inactive) | 20.2 µM (inactive) | 19 µM (inactive) | 1.6 µM (inactive) | 20.2 µM (inactive) | 17.8 µM (inactive) | 17.8 µM (inactive) | 3.69 µM (inactive)
O=C(Cc1nc2ccccc2s1)C(=O)Nc1cccc(C(F)(F)F)c1 | > 100 µM (inactive) | > 100 µM (inactive) | > 100 µM (inactive) | > 100 µM (inactive) | > 100 µM (inactive) | > 100 µM (inactive) | > 100 µM (inactive) | > 100 µM (inactive) | > 100 µM (inactive) | > 100 µM (inactive) | > 100 µM (inactive) | > 100 µM (inactive) | > 100 µM (inactive) | > 100 µM (inactive) | > 100 µM (inactive) | > 100 µM (inactive)
O=[N+]([O-])c1ccc(C(Cl)C(Cl)c2ccc(C(Cl)C(Cl)c3ccc([N+](=O)[O-])cc3[N+](=O)[O-])cc2)c([N+](=O)[O-])c1 (stereo not given) | 1.89 µM (inactive) | 22.8 µM (inactive) | 2.05 µM (inactive) | 0.75 µM (active) | 1.42 µM (inactive) | 0.879 µM (active) | 0.0638 µM (active) | 0.964 µM (active) | 1.26 µM (inactive) | 1.42 µM (inactive) | 2.13 µM (inactive) | 2.3 µM (inactive) | 1.52 µM (inactive) | 1.63 µM (inactive) | 1.39 µM (inactive) | 0.232 µM (active)
O=C1N=CN=C2C=CC(Cl)=C(I)C12 (stereo not given) | 20.2 µM (inactive) | 49.3 µM (inactive) | 43.4 µM (inactive) | > 100 µM (inactive) | 81.5 µM (inactive) | > 100 µM (inactive) | > 100 µM (inactive) | 23.3 µM (inactive) | 74.3 µM (inactive) | 84.7 µM (inactive) | 9.4 µM (inactive) | > 100 µM (inactive) | > 100 µM (inactive) | > 100 µM (inactive) | > 100 µM (inactive) | > 100 µM (inactive)
Cc1ccc(Oc2ccc(C(=O)c3cccc(C(=O)c4ccc(Oc5ccc(C)cc5)cc4)n3)cc2)cc1 | > 100 µM (inactive) | > 100 µM (inactive) | > 100 µM (inactive) | > 100 µM (inactive) | > 100 µM (inactive) | > 100 µM (inactive) | > 100 µM (inactive) | > 100 µM (inactive) | > 100 µM (inactive) | > 100 µM (inactive) | > 100 µM (inactive) | > 100 µM (inactive) | 71.8 µM (inactive) | > 100 µM (inactive) | > 100 µM (inactive) | > 100 µM (inactive)
COC(=O)CCC(NC(=S)N/N=C(\C)c1nccs1)C(=O)OC (stereo not given) | 56.6 µM (inactive) | > 100 µM (inactive) | 47.6 µM (inactive) | 47.5 µM (inactive) | > 100 µM (inactive) | 41.8 µM (inactive) | 31.8 µM (inactive) | 42.2 µM (inactive) | 78.2 µM (inactive) | 22.6 µM (inactive) | 67.6 µM (inactive) | > 100 µM (inactive) | 45.8 µM (inactive) | 74.8 µM (inactive) | 69.3 µM (inactive) | 
Clc1cc2ns[s+]c2cc1Cl | 21.1 µM (inactive) | > 100 µM (inactive) | 12.4 µM (inactive) | 32.8 µM (inactive) | > 45.1 µM (inactive) | 9.73 µM (inactive) | 14.3 µM (inactive) | > 100 µM (inactive) | > 100 µM (inactive) | 29.1 µM (inactive) | 81.8 µM (inactive) | > 81.8 µM (inactive) | > 100 µM (inactive) | 56.9 µM (inactive) | > 75.9 µM (inactive) | 33.4 µM (inactive)
N#C/C(=C\c1cccc(O)c1)C(N)=O | > 100 µM (inactive) | > 100 µM (inactive) | > 100 µM (inactive) | > 100 µM (inactive) | > 100 µM (inactive) | > 100 µM (inactive) | > 100 µM (inactive) | 61.4 µM (inactive) | > 100 µM (inactive) | > 100 µM (inactive) | > 100 µM (inactive) | > 100 µM (inactive) | > 100 µM (inactive) | > 100 µM (inactive) | > 100 µM (inactive) | > 100 µM (inactive)
CN1C(=S)CSc2ccccc21 | > 100 µM (inactive) | > 100 µM (inactive) | > 100 µM (inactive) | > 100 µM (inactive) | > 100 µM (inactive) | > 100 µM (inactive) | > 100 µM (inactive) | > 100 µM (inactive) | > 100 µM (inactive) | > 100 µM (inactive) | 44.1 µM (inactive) | > 100 µM (inactive) | > 100 µM (inactive) | > 100 µM (inactive) | > 100 µM (inactive) | > 100 µM (inactive)
COc1cc2c(c(OC)c1OC)-c1ccc(SC)c(=O)cc1C(CC(=O)Oc1ccccc1F)C2 (stereo not given) | 0.036 µM (active) | 0.0202 µM (active) | 0.0834 µM (active) | 0.00802 µM (active) | 0.0251 µM (active) | 0.0175 µM (active) | 0.0127 µM (active) | < 0.0075 µM (active) | < 0.0075 µM (active) | 0.0152 µM (active) |  | 0.055 µM (active) | 1.03 µM (active) | 0.0226 µM (active) | < 0.0075 µM (active) | 0.0132 µM (active)
CC(C)[C@H](CCl)NC(=O)c1cccc(C(=O)N[C@H](CCl)C(C)C)n1 (stereo in doubt) | > 100 µM (inactive) | > 100 µM (inactive) | > 100 µM (inactive) | > 100 µM (inactive) |  | > 100 µM (inactive) | > 100 µM (inactive) | > 100 µM (inactive) | > 100 µM (inactive) | > 100 µM (inactive) | > 100 µM (inactive) | > 100 µM (inactive) | > 100 µM (inactive) | > 100 µM (inactive) | > 100 µM (inactive) | > 100 µM (inactive)
Cc1c(CCO)c(O)n2c(nc3ccccc32)c1C#N | > 100 µM (inactive) | > 100 µM (inactive) | > 100 µM (inactive) | 54.1 µM (inactive) | 91.6 µM (inactive) | 84.1 µM (inactive) | 66.5 µM (inactive) | > 100 µM (inactive) | 46.1 µM (inactive) | 44.5 µM (inactive) | > 100 µM (inactive) | > 100 µM (inactive) | 39.4 µM (inactive) | > 100 µM (inactive) | 66.4 µM (inactive) | 29.4 µM (inactive)
C[n+]1c2ccccc2c(NCC(=O)O)c2ccccc21 | > 100 µM (inactive) | > 100 µM (inactive) | > 100 µM (inactive) | > 100 µM (inactive) | > 100 µM (inactive) | > 100 µM (inactive) | > 100 µM (inactive) | > 100 µM (inactive) | > 100 µM (inactive) | > 100 µM (inactive) | 87.5 µM (inactive) |  | > 100 µM (inactive) | > 100 µM (inactive) | > 100 µM (inactive) | 
CC(=O)O[C@H]1CCC2[C@@H]3CCC4=C(O)C(=O)C(C#N)C[C@]4(C)C3CC[C@@]21C (stereo not given in full) | 24.4 µM (inactive) | 29.4 µM (inactive) | 26.7 µM (inactive) | 47.1 µM (inactive) | 35 µM (inactive) | 34 µM (inactive) | 81.3 µM (inactive) | 24.9 µM (inactive) | 47.8 µM (inactive) | 25.6 µM (inactive) | 41.7 µM (inactive) | 46.7 µM (inactive) | 30.9 µM (inactive) | 36.7 µM (inactive) | 24.4 µM (inactive) | 30.1 µM (inactive)
